Measured values reported in patent US7569569B2, “Pyrrolo[2,3-d]pyrimidine compounds” (Pfizer Inc., priority 1998, dated 2009).

SMILES | melting point
Clc1c[nH]c2ncnc(N3CCCC4CCCCC43)c12 (stereo not drawn) [Example 39, 1-(5-Chloro-7H-pyrrolo[2,3-d]pyrimidin-4-yl)-decahydro-quinoline] | 190 to 192 °C
Cc1cc2c(N(C)C3CCCCC3)ncnc2[nH]1 [Example 59, Cyclohexyl-methyl-(6-methyl-7H-pyrrolo[2,3-d]pyrimidin-4-yl)-amine] | 221 °C (dec.)
Clc1c[nH]c2ncnc(N3CCCCC3)c12 [Example 61, 5-Chloro-4-piperidin-1-yl-7H-pyrrolo[2,3-d]pyrimidine] | 170 to 172 °C
Clc1c[nH]c2ncnc(N3CCC4CCCCC43)c12 (stereo not drawn) [Example 62, 5-Chloro-4-(octahydro-indol-1-yl)-7H-pyrrolo[2,3-d]pyrimidine] | 193 °C
N#Cc1c[nH]c2ncnc(N3CCCCC3)c12 [Example 78, 4-Piperidin-1-yl-7H-pyrrolo[2,3-d]pyrimidine-5-carbonitrile] | 209 to 211 °C
C#Cc1c[nH]c2ncnc(N3CCCCC3)c12 [Example 79, 5-Ethynyl-4-piperidin-1-yl-7H-pyrrolo[2,3-d]pyrimidine] | 179 to 181 °C

The next lines start with the values.

melting point | SMILES
225 to 226 °C | c1nc(N2CCCCCCC2)c2cc[nH]c2n1 [Example 17, 4-Azocan-1-yl-7H-pyrrolo[2,3-d]pyrimidine]
106 to 107 °C | CCCC1CCCCN1c1ncnc2[nH]ccc12 (stereo not drawn) [Example 24, 4-(2-Propyl-piperidin-1-yl)-7H-pyrrolo[2,3-d]pyrimidine]
210 °C | c1nc(N2CCCCCC2)c2cc[nH]c2n1 [Example 27, 4-Azepan-1-yl-7H-pyrrolo[2,3-d]pyrimidine]
